In patent publication US20260028596A1, “METHOD FOR PRODUCING HIGH YIELD AND HIGH QUALITY RECOMBINANT ADENO-[…]” (Aavatar Therapeutics Co.,Ltd., priority 2022, published 2026):

Columns and labels:
[1] = system: Host cells capable of producing recombinant adeno-associated virus of the AAV9 serotype (Expi293F cells); assay: Osmotic shock process: viral genomes (vg) recovered from media of rAAV-producing host cells; type: cell-based; settings: 0.5 M salt as osmotic shock reagent, added 4 days after transfection, 3 hours; vs negative control NT (FIG. 2)
Method: (§1) Expi293F cells (Cat #A14527, Thermo) were grown in Expi293 Expression Medium (Cat #A14351-02, Thermo) supplemented with 1% penicillin-streptomycin (Cat #15140122, Thermo). Then, the cells were maintained under serum-free suspension culture conditions. Herein, the serum-free suspension culture conditions were as follows: 120 rpm stirring rate in a shaker incubator (Cat #NB-206CL, N-biotek, South Korea); 37° C.; 8% CO2; and 85% relative humidity.
(§2) Expi293F cells were seeded in Expi293F expression media at a density of 2.5×10^6 cells per 1 mL and cultured for 3 hours. Then, the cells were transfected using 25-kDa linear PEI (Cat #23966-1, Polyscience, USA) along with the three plasmids (pHelper[Cat #112867, Addgene], pRC9n[Cat #112865, Addgene], and pAAV[Cat #105530, Addgene]), respectively. Specifically, the plasmids were mixed in DMEM (Cat #10569010, Thermo) at 1/10 the volume of cells to be transfected. Next, PEI was added to DNAs diluted in DMEM. After an additionally 20-minute culture, a DNA-PEI complex was added to the cells.
The following experiment was conducted to determine a yield improvement effect of the recombinant adeno-associated virus production process including the osmotic shock process depending on osmotic shock conditions:
Host cells capable of producing recombinant adeno-associated virus of the AAV9 serotype were prepared according to Experimental Examples 1.1 to 1.3.
For each experimental group, 2.5×10^6 cells per mL were seeded in a 30 mL culture vessel, and experiments were conducted using a total of 16 culture vessels for each experimental group.
On the basis of the time of transfection of the recombinant adeno-associated virus expression plasmid into the host cells, an osmotic shock reagent was added 4 days later, the condition was maintained for 3 hours, sample media and/or cells were harvested, and the viral genome was (vg) counts were measured.

[2] = system: Host cells capable of producing a recombinant adeno-associated virus of a AAV9 serotype (Expi293F cells); assay: Pre-culture treatment process: rAAV yield (total vg) of host cells; type: cell-based; settings: pre-culture agent with PEI (1 mg/ml), Nocodazole 4 uM and/or M344 2.5 uM, 4 hours after transfection; osmotic shock after 4 days (FIG. 3)
Method: as §1, §2
The following experiment was conducted to determine a yield improvement effect of the recombinant adeno-associated virus production process including the pre-culture treatment process depending on pre-culture treatment conditions: […]

Row | Compound | number of viral genomes recovered from the media, by salt type [1] | yield of recombinant adeno-associated virus in the host cells [2]
1 | [Cl-].[K+] [KCl, potassium chloride] | significant increase in the number of viral genomes recovered from the media | –
2 | CN(C)c1ccc(C(=O)NCCCCCCC(=O)NO)cc1 [M344] | – | yield of recombinant adeno-associated virus in the host cells was increased
3 | [Cl-].[Cl-].[Mg+2] [MgCl2, magnesium chloride] | significant increase in the number of viral genomes recovered from the media | –
4 | [Cl-].[Na+] [NaCl, sodium chloride] | significant increase in the number of viral genomes recovered from the media | –
5 | COC(=O)Nc1nc2ccc(C(=O)c3cccs3)cc2[nH]1 [Nocodazole] | – | yield of recombinant adeno-associated virus in the host cells was increased
